Measured values reported in ChEMBL document CHEMBL3745631, “Discovery of highly potent and selective Bruton's tyrosine kinase inhibitors: Pyridazinone analogs with improved metabolic stability” (Bioorg Med Chem Lett, 2016).

Columns and labels:
[1] = target: Serine/threonine-protein kinase D1 (PRKD1) (Homo sapiens) (UniProt Q15139); assay: Inhibition of PKD1 (unknown origin) at 1 uM
[2] = target: Dual specificity protein kinase CLK2 (Homo sapiens) (UniProt P49760); assay: Inhibition of CLK2 (unknown origin) at 1 uM
[3] = target: STE20-like serine/threonine-protein kinase (SLK) (Homo sapiens) (UniProt Q9H2G2); assay: Inhibition of SLK (unknown origin) at 1 uM
[4] = target: Serine/threonine-protein kinase Nek4 (Homo sapiens) (UniProt P51957); assay: Inhibition of NEK4 (unknown origin) at 1 uM
Sequence of Serine/threonine-protein kinase Nek4 (Homo sapiens) (P51957 whole entry, looked up, canonical isoform): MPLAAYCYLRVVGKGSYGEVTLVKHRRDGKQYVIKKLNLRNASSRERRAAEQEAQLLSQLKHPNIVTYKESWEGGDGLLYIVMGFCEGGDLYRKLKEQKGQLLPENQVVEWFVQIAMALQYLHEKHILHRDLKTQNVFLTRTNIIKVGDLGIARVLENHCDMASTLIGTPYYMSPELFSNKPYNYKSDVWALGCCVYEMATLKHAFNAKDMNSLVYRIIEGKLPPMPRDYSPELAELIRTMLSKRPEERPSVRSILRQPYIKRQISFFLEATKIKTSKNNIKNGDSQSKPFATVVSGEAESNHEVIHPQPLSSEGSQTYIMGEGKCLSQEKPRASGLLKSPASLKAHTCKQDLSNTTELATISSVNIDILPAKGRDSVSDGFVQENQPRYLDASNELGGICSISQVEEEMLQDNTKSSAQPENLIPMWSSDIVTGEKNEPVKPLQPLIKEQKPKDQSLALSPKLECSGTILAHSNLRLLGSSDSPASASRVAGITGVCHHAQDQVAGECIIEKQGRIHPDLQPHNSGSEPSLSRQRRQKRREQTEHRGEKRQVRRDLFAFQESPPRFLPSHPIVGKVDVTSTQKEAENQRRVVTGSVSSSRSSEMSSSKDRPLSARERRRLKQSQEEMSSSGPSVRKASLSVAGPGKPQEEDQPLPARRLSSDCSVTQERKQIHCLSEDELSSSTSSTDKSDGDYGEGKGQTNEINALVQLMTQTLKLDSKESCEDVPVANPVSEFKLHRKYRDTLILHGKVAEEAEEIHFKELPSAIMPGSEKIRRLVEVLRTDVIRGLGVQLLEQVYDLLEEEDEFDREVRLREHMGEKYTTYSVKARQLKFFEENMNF

[5] = target: Casein kinase I isoform gamma-1 (Homo sapiens) (UniProt Q9HCP0); assay: Inhibition of CK1 gamma1 (unknown origin) at 1 uM
[6] = target: Cyclin-dependent kinase 7/ cyclin H (Homo sapiens) (UniProt P51946+P50613); assay: Inhibition of CDK7/cyclinH (unknown origin) at 1 uM; type: protein-complex assay
Salmonella typhimurium = assay: Genotoxicity in Salmonella typhimurium TA98 by Ames test in presence of S9 fraction; type: toxicity, organism-based; conditions: salmonella enterica subsp. enterica serovar typhimurium
[7] = target: Vascular endothelial growth factor receptor 1 (Homo sapiens) (UniProt P17948); assay: Inhibition of Flt1 (unknown origin) at 1 uM
[8] = target: Activin receptor type-1 (Homo sapiens) (UniProt Q04771); assay: Inhibition of ALK2 (unknown origin) at 1 uM
[9] = target: Calcium/calmodulin-dependent protein kinase type II subunit alpha (Homo sapiens) (UniProt Q9UQM7); assay: Inhibition of CamK2 alpha (unknown origin) at 1 uM
[10] = target: High affinity nerve growth factor receptor (Homo sapiens) (UniProt P04629); assay: Inhibition of TrkA (unknown origin) at 1 uM
Sequence of High affinity nerve growth factor receptor (Homo sapiens) (P04629 33-796 limits assumed): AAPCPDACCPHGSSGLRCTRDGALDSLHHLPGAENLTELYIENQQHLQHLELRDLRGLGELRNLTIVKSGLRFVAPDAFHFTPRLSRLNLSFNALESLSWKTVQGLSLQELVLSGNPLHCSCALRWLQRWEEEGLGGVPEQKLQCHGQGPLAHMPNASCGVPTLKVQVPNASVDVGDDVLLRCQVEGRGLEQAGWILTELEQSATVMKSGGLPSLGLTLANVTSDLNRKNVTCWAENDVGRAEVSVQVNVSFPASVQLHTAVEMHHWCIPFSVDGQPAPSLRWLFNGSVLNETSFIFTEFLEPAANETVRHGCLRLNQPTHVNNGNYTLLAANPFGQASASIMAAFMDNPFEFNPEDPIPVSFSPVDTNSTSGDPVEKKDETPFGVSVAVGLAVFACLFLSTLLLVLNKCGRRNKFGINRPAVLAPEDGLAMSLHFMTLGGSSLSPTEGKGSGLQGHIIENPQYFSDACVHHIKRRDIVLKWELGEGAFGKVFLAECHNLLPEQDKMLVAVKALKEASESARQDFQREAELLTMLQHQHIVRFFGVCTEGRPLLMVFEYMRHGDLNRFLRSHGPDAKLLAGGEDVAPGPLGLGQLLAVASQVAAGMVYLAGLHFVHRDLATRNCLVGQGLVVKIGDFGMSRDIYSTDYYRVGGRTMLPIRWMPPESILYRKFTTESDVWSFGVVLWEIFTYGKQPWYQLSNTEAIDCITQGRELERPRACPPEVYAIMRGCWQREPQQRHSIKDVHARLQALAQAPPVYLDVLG

[11] = target: Interleukin-1 receptor-associated kinase 4 (Homo sapiens) (UniProt Q9NWZ3); assay: Inhibition of IRAK4 (unknown origin) at 1 uM
[12] = target: Protein kinase C eta type (Homo sapiens) (UniProt P24723); assay: Inhibition of PKCeta (unknown origin) at 1 uM
Sequence of Protein kinase C eta type (Homo sapiens) (P24723 whole entry): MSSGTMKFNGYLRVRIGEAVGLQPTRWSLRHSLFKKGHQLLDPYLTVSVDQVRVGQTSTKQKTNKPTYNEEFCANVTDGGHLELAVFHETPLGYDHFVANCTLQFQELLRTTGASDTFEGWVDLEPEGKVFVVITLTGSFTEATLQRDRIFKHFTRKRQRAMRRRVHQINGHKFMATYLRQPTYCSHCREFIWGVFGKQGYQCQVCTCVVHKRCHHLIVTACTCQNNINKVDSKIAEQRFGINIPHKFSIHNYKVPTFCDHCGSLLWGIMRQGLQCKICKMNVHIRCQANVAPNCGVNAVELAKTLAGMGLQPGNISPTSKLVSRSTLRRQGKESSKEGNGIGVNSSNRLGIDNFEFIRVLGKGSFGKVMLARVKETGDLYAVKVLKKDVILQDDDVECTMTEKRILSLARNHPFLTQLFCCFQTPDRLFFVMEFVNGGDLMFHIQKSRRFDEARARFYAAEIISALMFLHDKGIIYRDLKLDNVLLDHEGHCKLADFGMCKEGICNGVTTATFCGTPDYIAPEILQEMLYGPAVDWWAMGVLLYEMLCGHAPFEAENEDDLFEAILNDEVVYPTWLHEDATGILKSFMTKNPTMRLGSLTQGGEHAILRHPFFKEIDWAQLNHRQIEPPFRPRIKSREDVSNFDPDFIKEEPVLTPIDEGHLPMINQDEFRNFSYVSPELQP

[13] = target: Beta-adrenergic receptor kinase 1 (Homo sapiens) (UniProt P25098); assay: Inhibition of GRK2 (unknown origin) at 1 uM
[14] = target: cAMP-dependent protein kinase catalytic subunit PRKX (Homo sapiens) (UniProt P51817); assay: Inhibition of PrKX (unknown origin) at 1 uM
[15] = target: MAP kinase-activated protein kinase 5 (Homo sapiens) (UniProt Q8IW41); assay: Inhibition of PRAK (unknown origin) at 1 uM
Cynomolgus monkey = assay: Clearance in cynomolgus monkey at 1 mg/kg, iv by LC-MS/MS analysis; type: ADME, organism-based, Macaca fascicularis; conditions: in vivo
[16] = target: SRSF protein kinase 1 (Homo sapiens) (UniProt Q96SB4); assay: Inhibition of SRPK1 (unknown origin) at 1 uM
[17] = target: Mitogen-activated protein kinase 12 (Homo sapiens) (UniProt P53778); assay: Inhibition of p38 gamma (unknown origin) at 1 uM
[18] = target: Serine/threonine-protein kinase TBK1 (Homo sapiens) (UniProt Q9UHD2); assay: Inhibition of TBK1 (unknown origin) at 1 uM
[19] = target: Ribosomal protein S6 kinase alpha-2 (Homo sapiens) (UniProt Q15349); assay: Inhibition of Rsk3 (unknown origin) at 1 uM
Sequence of Ribosomal protein S6 kinase alpha-2 (Homo sapiens) (Q15349 whole entry): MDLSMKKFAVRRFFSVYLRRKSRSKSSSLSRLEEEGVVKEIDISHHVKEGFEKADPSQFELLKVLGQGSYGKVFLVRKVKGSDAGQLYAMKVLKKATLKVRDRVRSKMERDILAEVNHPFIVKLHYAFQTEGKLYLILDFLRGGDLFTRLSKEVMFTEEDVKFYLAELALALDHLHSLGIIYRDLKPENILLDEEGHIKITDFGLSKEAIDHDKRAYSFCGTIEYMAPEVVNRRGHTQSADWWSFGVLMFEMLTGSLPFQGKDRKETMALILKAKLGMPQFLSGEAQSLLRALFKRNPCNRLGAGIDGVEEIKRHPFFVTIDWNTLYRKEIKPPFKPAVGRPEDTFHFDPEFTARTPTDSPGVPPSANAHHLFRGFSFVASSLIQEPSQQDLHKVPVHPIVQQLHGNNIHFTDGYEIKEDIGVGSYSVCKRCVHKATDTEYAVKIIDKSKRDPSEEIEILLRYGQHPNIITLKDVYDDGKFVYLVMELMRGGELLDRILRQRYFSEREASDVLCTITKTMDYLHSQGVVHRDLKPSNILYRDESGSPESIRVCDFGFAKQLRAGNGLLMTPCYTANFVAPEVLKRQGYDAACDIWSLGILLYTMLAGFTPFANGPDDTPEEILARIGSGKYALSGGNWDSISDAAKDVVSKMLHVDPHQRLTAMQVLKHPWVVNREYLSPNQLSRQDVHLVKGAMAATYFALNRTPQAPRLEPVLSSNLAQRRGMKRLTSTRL

[20] = system: Epidermal growth factor receptor (Homo sapiens), P00533 [L858R,T790M]; assay: Inhibition of EGFR T790M,L858R mutant (unknown origin) at 1 uM; type: protein assay
[21] = system: RAF proto-oncogene serine/threonine-protein kinase (Homo sapiens), P04049 [Y340D,Y341D]; assay: Inhibition of RAF1 Y340D, Y341D mutant (unknown origin) at 1 uM
Sequence of RAF proto-oncogene serine/threonine-protein kinase (Homo sapiens), P04049 [Y340D,Y341D] (P04049 whole entry Y340D/Y341D): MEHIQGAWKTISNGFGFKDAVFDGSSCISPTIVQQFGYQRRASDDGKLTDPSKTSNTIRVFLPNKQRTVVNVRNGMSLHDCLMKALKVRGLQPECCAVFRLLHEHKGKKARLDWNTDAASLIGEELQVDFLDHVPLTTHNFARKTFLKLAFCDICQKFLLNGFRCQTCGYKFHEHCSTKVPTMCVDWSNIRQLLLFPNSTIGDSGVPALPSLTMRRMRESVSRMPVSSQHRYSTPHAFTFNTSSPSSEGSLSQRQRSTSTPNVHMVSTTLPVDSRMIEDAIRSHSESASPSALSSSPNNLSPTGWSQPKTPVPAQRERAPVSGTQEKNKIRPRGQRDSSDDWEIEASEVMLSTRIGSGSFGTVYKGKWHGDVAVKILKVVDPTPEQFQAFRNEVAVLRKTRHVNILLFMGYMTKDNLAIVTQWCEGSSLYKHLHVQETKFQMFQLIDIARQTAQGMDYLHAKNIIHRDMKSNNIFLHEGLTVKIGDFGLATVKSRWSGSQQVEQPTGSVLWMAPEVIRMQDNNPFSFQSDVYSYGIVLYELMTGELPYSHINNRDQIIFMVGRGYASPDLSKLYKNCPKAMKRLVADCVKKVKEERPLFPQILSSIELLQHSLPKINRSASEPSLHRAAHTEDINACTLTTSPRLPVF

[22] = target: Serine/threonine-protein kinase 3 (Homo sapiens) (UniProt Q13188); assay: Inhibition of MST2 (unknown origin) at 1 uM
Hepatocyte = assay: Intrinsic clearance in human hepatocytes at 1 uM by LC-MS/MS analysis; type: ADME, cell-based
[23] = target: Insulin-like growth factor 1 receptor (Homo sapiens) (UniProt P08069); assay: Inhibition of IGF1R (unknown origin) at 1 uM
[24] = target: Serine/threonine-protein kinase pim-1 (Homo sapiens) (UniProt P11309); assay: Inhibition of PIM1 (unknown origin) at 1 uM
Sequence of Serine/threonine-protein kinase pim-1 (Homo sapiens) (P11309 whole entry, looked up): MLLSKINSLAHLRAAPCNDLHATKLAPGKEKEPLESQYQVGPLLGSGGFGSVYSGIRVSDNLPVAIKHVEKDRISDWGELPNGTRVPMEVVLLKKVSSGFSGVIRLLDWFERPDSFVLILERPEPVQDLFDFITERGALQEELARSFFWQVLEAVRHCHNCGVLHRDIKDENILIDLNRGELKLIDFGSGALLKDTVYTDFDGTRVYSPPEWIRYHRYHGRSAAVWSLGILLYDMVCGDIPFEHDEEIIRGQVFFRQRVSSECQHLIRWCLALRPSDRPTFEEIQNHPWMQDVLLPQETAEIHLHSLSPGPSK

Homo sapiens = species: Homo sapiens; assay: Inhibition of PKA (unknown origin) at 1 uM
[25] = target: Platelet-derived growth factor receptor alpha (Homo sapiens) (UniProt P16234); assay: Inhibition of PDGFR alpha (unknown origin) at 1 uM
[26] = target: Serine/threonine-protein kinase PAK 3 (Homo sapiens) (UniProt O75914); assay: Inhibition of PAK3 (unknown origin) at 1 uM
Liver microsome = assay: Intrinsic clearance in human liver microsomes at 1 uM by LC-MS/MS analysis in presence of NADPH; type: ADME
[27] = target: Dual specificity mitogen-activated protein kinase kinase 3 (Homo sapiens) (UniProt P46734); assay: Inhibition of MEK3 (unknown origin) at 1 uM
[28] = target: Myosin light chain kinase, smooth muscle (Homo sapiens) (UniProt Q15746); assay: Inhibition of MYLK(smMLCK) (unknown origin) at 1 uM
[29] = target: G protein-coupled receptor kinase 3 (Homo sapiens) (UniProt P35626); assay: Inhibition of GRK3 (unknown origin) at 1 uM
[30] = target: Tyrosine-protein kinase SYK (Homo sapiens) (UniProt P43405); assay: Inhibition of Syk (unknown origin) at 1 uM
[31] = target: Mitogen-activated protein kinase kinase kinase kinase 5 (Homo sapiens) (UniProt Q9Y4K4); assay: Inhibition of KHS1 (unknown origin) at 1 uM
Blood = assay: Inhibition of IgE-stimulated CD63 expression in human whole blood
Mus musculus = assay: Clearance in mouse at 1 mg/kg, iv by LC-MS/MS analysis; type: ADME, organism-based; conditions: in vivo
[32] = target: Serine/threonine-protein kinase B-raf (Homo sapiens) (UniProt P15056); assay: Inhibition of B-Raf (unknown origin) at 1 uM
[33] = target: Serine/threonine-protein kinase SIK2 (Homo sapiens) (UniProt Q9H0K1); assay: Inhibition of SIK2 (unknown origin) at 1 uM
[34] = target: Mitogen-activated protein kinase 9 (Homo sapiens) (UniProt P45984); assay: Inhibition of JNK2 (unknown origin) at 1 uM
[35] = target: Casein kinase II subunit alpha (Homo sapiens) (UniProt P68400); assay: Inhibition of CK2 alpha1 (unknown origin) at 1 uM
Sequence of Casein kinase II subunit alpha (Homo sapiens) (P68400 whole entry, looked up): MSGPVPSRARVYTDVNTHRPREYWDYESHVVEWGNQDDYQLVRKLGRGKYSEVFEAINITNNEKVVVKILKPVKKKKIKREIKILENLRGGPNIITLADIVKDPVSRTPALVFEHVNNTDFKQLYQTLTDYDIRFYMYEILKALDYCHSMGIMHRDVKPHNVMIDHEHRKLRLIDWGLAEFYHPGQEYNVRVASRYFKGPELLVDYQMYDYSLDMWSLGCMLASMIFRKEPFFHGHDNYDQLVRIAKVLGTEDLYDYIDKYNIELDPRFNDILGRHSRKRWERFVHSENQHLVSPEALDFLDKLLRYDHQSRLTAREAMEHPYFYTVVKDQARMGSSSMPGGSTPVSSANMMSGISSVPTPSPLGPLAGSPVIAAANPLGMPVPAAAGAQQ

[36] = target: Calcium/calmodulin-dependent protein kinase type II subunit beta (Homo sapiens) (UniProt Q13554); assay: Inhibition of CaMK2 beta (unknown origin) at 1 uM
Sequence of Calcium/calmodulin-dependent protein kinase type II subunit beta (Homo sapiens) (Q13554 whole entry): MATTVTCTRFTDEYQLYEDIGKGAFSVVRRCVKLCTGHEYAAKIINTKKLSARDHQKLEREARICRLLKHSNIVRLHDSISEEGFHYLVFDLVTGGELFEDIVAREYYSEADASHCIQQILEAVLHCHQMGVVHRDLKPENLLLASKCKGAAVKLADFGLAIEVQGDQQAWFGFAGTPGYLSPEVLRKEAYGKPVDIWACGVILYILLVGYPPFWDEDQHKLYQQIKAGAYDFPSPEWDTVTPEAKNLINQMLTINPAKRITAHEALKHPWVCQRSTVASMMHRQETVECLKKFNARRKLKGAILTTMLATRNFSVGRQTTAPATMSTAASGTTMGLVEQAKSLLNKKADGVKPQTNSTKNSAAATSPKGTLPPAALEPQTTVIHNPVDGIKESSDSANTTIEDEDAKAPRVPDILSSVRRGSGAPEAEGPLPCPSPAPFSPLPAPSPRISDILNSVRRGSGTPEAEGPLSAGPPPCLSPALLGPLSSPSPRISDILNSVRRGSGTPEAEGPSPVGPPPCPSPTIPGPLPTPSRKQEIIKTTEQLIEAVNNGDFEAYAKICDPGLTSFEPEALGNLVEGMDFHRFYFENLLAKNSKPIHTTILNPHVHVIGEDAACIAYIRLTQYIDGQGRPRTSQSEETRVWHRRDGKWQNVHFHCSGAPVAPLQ

[37] = target: Serine/threonine-protein kinase Nek1 (Homo sapiens) (UniProt Q96PY6); assay: Inhibition of NEK1 (unknown origin) at 1 uM

For `Cc1c(-c2cc(Nc3cc4n(n3)CCN(C)C4)c(=O)[nH]n2)ccc(F)c1NC(=O)c1cc2ccccc2s1`, the inhibition [1] was 1.6%, the inhibition [2] was -7% and the inhibition [3] was -3%. The inhibition [4] was 1%, the inhibition [5] was 6.2% and the inhibition [6] was -7.7%. For the same compound, the Activity (Salmonella typhimurium) was “Non-toxic”, the inhibition [7] was -0.7% and the inhibition [8] was -2.1%. It also gave an inhibition [9] of 2.8%, an inhibition [10] of -8% and an inhibition [11] of 2%. For the same compound, the inhibition [12] was -8%, the inhibition [13] was 0.8% and the inhibition [14] was -9.9%. It also gave an inhibition [15] of 2%, a clearance (Cynomolgus monkey) of 4 mL/min/kg and an inhibition [16] of 0.6%. It also gave an inhibition [17] of 6.5%, an inhibition [18] of 7.5% and an inhibition [19] of -0.6%. For the same compound, the inhibition [20] was 6.1%, the inhibition [21] was 5.5% and the inhibition [22] was -4.1%. For the same compound, the CLH (Hepatocyte) was under 6 mL/min/kg, the inhibition [23] was 6.4% and the inhibition [24] was 4.5%. The inhibition (Homo sapiens) was -4.8%, the inhibition [25] was 0.2% and the inhibition [26] was 14.6%. The CLH (Liver microsome) was 6 mL/min/kg, the inhibition [27] was -1.1% and the inhibition [28] was -0.8%. For the same compound, the inhibition [29] was 0.7%, the inhibition [30] was 5.6% and the inhibition [31] was 17.3%. It also gave an EC50 (Blood) of 257 nM, a clearance (Mus musculus) of 43 mL/min/kg and an inhibition [32] of 0.6%. The inhibition [33] was -3.9%, the inhibition [34] was 1.8% and the inhibition [35] was 0.8%. The inhibition [36] was -2.2% and the inhibition [37] was 1.5%.
